Results on 4 compounds are retold here after patent US9045524B2, “Selective caspase inhibitors and uses thereof” (NOVAGENESIS FOUNDATION, priority 2009, dated 2015).

For test [1], the system named is EAE in C57BL/6 mice. Description: Chronic EAE mouse model (MOG35-55 immunization), daily clinical score and body weight. Set-up: key to Delay in onset of the disease / Reduction in severity of the disease / Reduction in body weight loss: +++: high level improvement; ++: moderate improvement; +: small improvement; −: no improvement. It counts as in vivo. The conditions noted are these: for Delay in onset of the disease / Reduction in body weight loss / Reduction in severity of the disease: average overall effects on the EAE model, i.p. An excerpt: The aim of this study was to verify the effectiveness of compounds in a chronic mouse animal model of EAE. EAE is a good proof-of-principle model of neurodegeneration since it encompasses degeneration or destruction of practically all the cells in the central nervous system, includes most major immunomodulatory components, and is able to maintain normal innate regenerative functions in the animal. This is a standard model (Antel J P et al., J Neurosci Res. 1997, 50: 345-353) used mainly to mimic the course evolution of Multiple Sclerosis (MS) in humans, and is commonly used for studying disease mechanisms and testing potential therapies. EAE is induced by immunization with myelin proteins, leading to development of myelin-specific T cells. These autoreactive T cells traffic into CNS parenchyma where they initiate an inflammatory cascade through recruitment of other cells such as monocytes and neutrophils. Accumulation of immune cells within CNS leads to myelin damage, axonal loss and clinical deficit in affected animals. EAE can be induced in a variety of species and strains of animals [mice, Rat, marmoset monkey, rhesus macaques] using various CNS antigens [Myelin Oligodendrocyte Glycoprotein (MOG), proteolipid protein (PLP) and myelin basic protein (MBP)]. Seven to 8 week old female C57BL/6 mice were purchased from Charles River Laboratories, and housed at MISPRO™ animal facility for one week before experimentation for adaptation to the new environment. All proper animal experimentation and ethics approvals were obtained prior to the start of any experiments. Mice were immunized subcutaneously with 100 μg of MOG35-55 (Sheldon Biotechnology Centre, McGill University) in CFA containing 5 mg/ml of desiccated (killed and dried) Mycobacterium tuberculosis H37Ra (Difco, Inc), at two sites on the back. The mice were then injected with 200 ng of pertussis toxin (List Biological Laboratories, Inc) in PBS intraperitoneally on days 0 and 2 using 25 gauge needles and scored daily using an EAE clinical scale as detailed below (Touil T et al., J Neurol Sci. 2008, 271:191-202; Antel J P et al., 1997, supra; Owens T et al., Curr Pharm Des. 2005, 1:1031-1037).
EAE was clinically assessed throughout the experiments by daily scoring using a scale from 0 to 5 as follows: partial limp tail, 0.5; full limp tail, 1; limp tail and waddling gait, 1.5; paralysis of one hind limb, 2; paralysis of one hind limb and partial paralysis of other hind limb, 2.5; paralysis of both hind limbs, 3; ascending paralysis, 3.5; paralysis of trunk, 4; moribund, 4.5; death, 5. In all the EAE models a body weight loss is always associated with the clinical signs. This body weight loss is associated with the loss of the function and the paralysis of the muscle (atrophy inducing loss of weight). For animals showing a clinical sign of 2 or more, the food and the water were presented inside the cage to facilitate eating and drinking.
At the onset of clinical signs of EAE, the mice were treated with 200 μl of Compound 51, 53, 57, 59, 101, 104, 105, 111 or 123 dissolved in 2.5% Dimethyl sulfoxide (DMSO) in PBS, while placebo groups were treated with 2.5% Dimethyl sulfoxide (DMSO) in PBS only, by intraperitoneal injection at different time of the clinical evolution.

Test [2] concerns the target Caspase-9 (Homo sapiens (Human), UniProt P55211). Description: Caspase-9 Inhibitor Drug Screening Kit, fluorometric (AFC liberation). The format is biochemical.
Procedure: (§1) The level of inhibition of caspase-1, -3, -5, -7, -9 activity was determined by comparison of the relative fluorescence intensity in samples with or without the compound.
Test [3] has as its target Caspase-1 (Homo sapiens (Human), UniProt P29466). Description: Caspase-1 Inhibitor Drug Screening Kit, fluorometric (AFC liberation). The format is biochemical. The conditions noted are these: for IC50: 30-minute incubation at 37° C., approximations of the average values, read-out: Caspase enzymatic activity, IC50 (uM) Caspase 1.
Procedure: as §1
Test [4] addresses Caspase-3 (Homo sapiens (Human), UniProt P42574). Description: Caspase-3 Inhibitor Drug Screening Kit, fluorometric (AFC liberation). The format is biochemical.
Procedure: as §1
Test [5] has as its system proteolytic cleavage of PARP (poly ADP-ribose polymerase) in Hela cells. Description: Inhibition of staurosporine-induced PARP cleavage in live Hela cells. It counts as cell-based. The conditions noted are these: for inhibition at 50 µM: Homo sapiens, HeLa. The protocol: To test the efficacy of caspase-3 inhibitors at the cellular level, the ability of selected compounds to inhibit the proteolytic cleavage of PARP (poly ADP-ribose polymerase) was evaluated in live Hela cells.
Briefly, in this assay Hela cells are seeded in 96 well plates and incubated for 4 hours with staurosporine, a well characterized inducer of apoptosis, alone or together with different concentrations of compound (50, 25, 10 and 3 uM). After formaldehyde-based fixation, the cells are stained with a fluorescein-labeled anti-cleaved PARP antibody (Cell signaling, Cat#: 9547) and counterstained with Hoechst33342 (Invitrogen, Cat#: H3570) to mark all nuclei. Fluorescence images are taken on a Cellomics™ microscope system (Thermo Scientific, Pittsburgh, USA) with the Hoechst stain in the blue channel and the cleaved PARP antibody stain in the green channel. The percentage of cleaved PARP positive cells is determined by calculating the ratio between nuclei with a cleaved PARP antibody staining above a certain threshold and all (Hoechst positive) nuclei. The efficacy of caspase-3 inhibition is determined by calculating the ratio between cleaved PARP positive cells after staurosporine incubation together with compounds and staurosporine incubation without compounds.

The target in test [6] is Caspase-7 (Homo sapiens (Human), UniProt P55210). Briefly: Caspase-7 Inhibitor Drug Screening Kit, fluorometric (AFC liberation). The format is biochemical.
Chain of Caspase-7 (P55210 whole entry): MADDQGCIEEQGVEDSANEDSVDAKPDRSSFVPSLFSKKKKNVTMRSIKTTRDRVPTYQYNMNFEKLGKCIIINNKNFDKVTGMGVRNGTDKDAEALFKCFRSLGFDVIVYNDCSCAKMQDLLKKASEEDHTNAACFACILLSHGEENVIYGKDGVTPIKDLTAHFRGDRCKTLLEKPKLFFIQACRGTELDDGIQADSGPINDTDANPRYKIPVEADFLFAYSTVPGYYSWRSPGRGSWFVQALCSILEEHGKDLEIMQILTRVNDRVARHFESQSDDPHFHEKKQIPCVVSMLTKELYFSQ
Procedure: as §1
The test system of test [7] is Glo3/7. Briefly: Glo3/7 assay. The format is biochemical.
In test [8] the target is Caspase-5 (Homo sapiens (Human), UniProt P51878). Description: Caspase-5 Inhibitor Drug Screening Kit, fluorometric (AFC liberation). It counts as biochemical. The conditions noted are these: 30-minute incubation at 37° C.; approximations of the average values; read-out: Caspase enzymatic activity, IC50 (uM) Caspase 5.
Chain of Caspase-5 (P51878 137-434): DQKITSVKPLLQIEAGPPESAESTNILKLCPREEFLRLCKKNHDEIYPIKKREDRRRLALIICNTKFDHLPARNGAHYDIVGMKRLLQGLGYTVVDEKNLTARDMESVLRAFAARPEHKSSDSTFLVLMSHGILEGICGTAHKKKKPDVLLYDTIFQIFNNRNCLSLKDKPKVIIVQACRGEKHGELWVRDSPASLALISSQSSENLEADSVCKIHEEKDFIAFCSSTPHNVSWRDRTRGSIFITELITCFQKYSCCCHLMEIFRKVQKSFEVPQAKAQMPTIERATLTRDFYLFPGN
Procedure: as §1
The mark [9] stands for this setting: FIG. 1, i.p. from day 10 to 16 post immunization, versus placebo.
The mark [10] stands for this setting: 30-minute incubation at 37° C., approximations of the average values, read-out: Caspase enzymatic activity, IC50 (uM) Caspase 9.
The mark [11] stands for this setting: 30-minute incubation at 37° C., approximations of the average values, read-out: Caspase enzymatic activity, IC50 (uM) Caspase 3.
The mark [12] stands for this setting: 4 h, read-out: % inhibition of PARP cleavage at 50 uM compound, Hela cells, staurosporine 4 hours, 50 uM compound.
Setting [13] is: 30-minute incubation at 37° C., approximations of the average values, read-out: Caspase enzymatic activity, IC50 (uM) Caspase 7.
[14] abbreviates: FIG. 2, i.p. from day 10 to 16 post immunization, versus placebo.

The structures appear in SMILES notation. Like-named read-outs stand apart in the source and are kept apart here.

Chain of Caspase-3 (P42574 29-277): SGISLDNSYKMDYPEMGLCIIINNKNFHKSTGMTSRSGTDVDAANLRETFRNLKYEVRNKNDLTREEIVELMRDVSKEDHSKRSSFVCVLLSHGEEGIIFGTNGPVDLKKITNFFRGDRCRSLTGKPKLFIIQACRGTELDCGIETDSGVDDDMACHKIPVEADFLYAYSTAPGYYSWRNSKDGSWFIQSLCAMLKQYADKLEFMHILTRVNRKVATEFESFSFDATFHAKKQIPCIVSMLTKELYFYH
Chain of Caspase-9 (P55211 whole entry): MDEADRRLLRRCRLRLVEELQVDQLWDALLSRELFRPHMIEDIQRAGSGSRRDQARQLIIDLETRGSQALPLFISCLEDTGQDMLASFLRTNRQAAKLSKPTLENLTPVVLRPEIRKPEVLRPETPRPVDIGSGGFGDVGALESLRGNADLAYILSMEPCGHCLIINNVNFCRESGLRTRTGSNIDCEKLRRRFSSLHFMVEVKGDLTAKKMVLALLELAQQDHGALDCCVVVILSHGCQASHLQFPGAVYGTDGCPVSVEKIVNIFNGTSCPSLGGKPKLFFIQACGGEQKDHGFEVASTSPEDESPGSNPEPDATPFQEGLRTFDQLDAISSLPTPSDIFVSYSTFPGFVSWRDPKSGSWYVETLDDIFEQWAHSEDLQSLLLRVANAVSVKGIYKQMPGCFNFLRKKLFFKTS
Chain of Caspase-1 (P29466 120-404): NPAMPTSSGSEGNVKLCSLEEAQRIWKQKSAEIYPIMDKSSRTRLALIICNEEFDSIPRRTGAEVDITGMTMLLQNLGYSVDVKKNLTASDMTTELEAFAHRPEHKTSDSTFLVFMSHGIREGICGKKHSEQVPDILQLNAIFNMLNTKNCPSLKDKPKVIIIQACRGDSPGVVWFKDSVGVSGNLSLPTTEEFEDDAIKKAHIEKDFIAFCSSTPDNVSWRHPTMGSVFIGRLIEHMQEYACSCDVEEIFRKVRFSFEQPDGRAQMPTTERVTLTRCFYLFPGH

What is called IC50 is the concentration needed to halve the response being measured. A word on the inhibition: it is the percentage by which the read-out fell short of the control. Regarding `COC(=O)C[C@@H](/C=C/S(C)(=O)=O)NC(=O)[C@@H](NC(=O)[C@@H](NC(=O)[C@H](CC(=O)OC)NC(=O)OCc1ccccc1)C1Cc2ccccc2C1)C(C)C` [Compound 51, Z-Asp(β-methyl)-Indanylglycine-Val-Asp(β-methyl)methyl vinyl sulfone], in test [1] (setting [9]), the Cumulative clinical score result was “significantly lower compared to placebo”, the Disease onset entry is given as “delayed”, the “Loss of body weight” value is reported as “less than the placebo” and the “clinical severity of the disease” value is “reduced significantly”. Besides, in test [1] (setting [9]), the maximal clinical score entry is reported as “significantly lower compared to placebo”. In test [1], the “Delay in onset of the disease” value is “++”, the “Reduction in body weight loss” value is given as “+++” and the “Reduction in severity of the disease” value is on record as “++”. Also, in test [2] (setting [10]), the IC50 is above 3 µM. In addition, the IC50 in test [3] is above 3 µM. In addition, the IC50 in test [4] (setting [11]) was 1 µM. Besides, the inhibition at 50 µM in test [5] (setting [12]) is above 50%. Moreover, in test [6] (setting [13]), the IC50 was above 3 µM. The compound further came in with a half-maximal inhibitory concentration (IC50) in test [7] above 50 µM. Besides, in test [8], the IC50 is above 3 µM.

As to `CC(C)[C@H](NC(=O)[C@@H](NC(=O)[C@H](CC(=O)O)NC(=O)OCc1ccccc1)C1Cc2ccccc2C1)C(=O)N[C@H](/C=C/S(C)(=O)=O)CC(=O)O` [Compound 57, Z-Asp-Indanylglycine-Val-Aspmethyl vinyl sulfone], the Cumulative clinical score result in test [1] (setting [9]) is reported as “reduced the cumulative score”. In addition, in test [1] (setting [9]), the Disease onset result is reported as “without delaying the onset of the disease”. Moreover, in test [1] (setting [9]), the “Loss of body weight” value was “did not show and difference compared to placebo”. Further, the “clinical severity of the disease” value in test [1] (setting [9]) was “reduced also the clinical severity of the disease”. In addition, the maximal clinical score entry in test [1] (setting [9]) is listed as “without any significant effect on the maximal score”. The “Delay in onset of the disease” value in test [1] is on record as “+”. Further, in test [1], the “Reduction in body weight loss” value was “+”. For the same compound, in test [1], the “Reduction in severity of the disease” value is on record as “+”. In addition, the IC50 in test [2] (setting [10]) was above 3.33 µM; in test [3], 0.9 µM; in test [4] (setting [11]) it was 0.03 µM; in test [4] (read-out: IC50 caspase-3) it was 0.03 to 0.09 µM; in test [6] (setting [13]), 0.2 µM; in test [6] (read-out: IC50 caspase-7) it was 0.18 to 0.3 µM. In addition, the values for the concentration for half-maximal inhibition (IC50) in test [7] and in test [8] were 0.1 µM and above 3.33 µM, respectively. The “fold less efficiency against caspase-1 than against group III caspases” value in test [3] is on record as “about 29 fold”. Besides, the inhibition at 50 µM in test [5] (setting [12]) is above 50%.

`CC(C)[C@H](NC(=O)[C@H](CCC(=O)O)NC(=O)[C@H](CC(=O)O)NC(=O)OCc1ccccc1)C(=O)N[C@H](/C=C/S(C)(=O)=O)CC(=O)O` [Compound 59, Z-Asp-Glu-Val-Aspmethyl vinyl sulfone]: the “Delay in onset of the disease” value in test [1] is “++”. Also, in test [1], the “Reduction in body weight loss” value is reported as “++”. Further, the “Reduction in severity of the disease” value in test [1] is given as “++”. The IC50 worked out at 0.5 µM in test [2] (setting [10]); 0.509 µM in test [2] (read-out: IC50 caspase-9); 1.4 µM in test [3]; 0.02 µM in test [4] (setting [11]); 0.02 µM in test [4] (read-out: IC50 caspase-3); 0.04 µM in test [6] (setting [13]). Moreover, the IC50 in test [6] (read-out: IC50 caspase-7) was 0.042 µM; in test [7], 0.09 µM; in test [8], above 3.33 µM. In addition, the “effectivity in inhibiting PARP cleavage” value in test [5] (Hela cells, staurosporine) is “showing effectivity especially relative to DEVD-fmk”.

For `COC(=O)C[C@@H](/C=C/S(C)(=O)=O)NC(=O)[C@@H](NC(=O)[C@@H](NC(=O)[C@H](CC(=O)OC)NC(=O)OCc1ccccc1)c1ccccc1)C(C)C` [Compound 101, Z-Asp(β-methyl)-phenylglycine-Val-Asp(β-methyl)methyl vinyl sulfone], the Disease onset result in test [1] (setting [14]) is listed as “delayed”. The “Loss of body weight” value in test [1] (setting [14]) is reported as “less than placebo”; in test [1] (FIG. 3, i.p. from day 14 to 19 post immunization, versus placebo), “less than in the placebo group”. In addition, the “severity of the disease” value in test [1] (setting [14]) is on record as “reduced significantly at the early stage of the disease”. Further, in test [1], the “Delay in onset of the disease” value was “+”. Further, in test [1], the “Reduction in body weight loss” value is recorded as “++”. In test [1], the “Reduction in severity of the disease” value was “+”. Moreover, the 50% inhibitory concentration (IC50) in test [2] (setting [10]) is above 3.33 µM; in test [3] it was above 3.33 µM; in test [4] (setting [11]) it was above 3.33 µM; in test [6] (setting [13]), above 3.33 µM; in test [7], 20 µM; in test [8] it was above 3.33 µM. Moreover, the inhibition at 50 µM in test [5] (setting [12]) was 40%; in test [5] (Hela cells, 50 uM, read-out: % of inhibition with compound relative to DEVDFMK) it was 45%.
